According to patent publication US20250057913A1, “USE OF SOMATOSTATIN AGONIST IN THE TREATMENT OF SSTR3 EXPRESSING TUMORS” (ITALFARMACO SPA, priority 2021, published 2025):

Tests used:
[1] = system: NT-3 cell line spheroids; assay: Cytotoxic activity on NT-3 cell line spheroids; assay type: cell-based, human
Experimental: NT-3 well-differentiated pancreatic neuroendocrine (PanNET) cell line (32) is an in-vitro model for pancreatic tumours.
Said cells were cultured in RPMI 1640 Medium GlutaMAX™ with 10% FBS, 1% Penicillin/Streptomycin, 20ng/ml EGF (AF-100-15, Peprotech), 10 ng/ml FGF (100-18B, Peprotech).
3D spheroids were generated by seeding 2000 cells/well in a 96-well ULA plate (Corning). Four replicates for each condition were seeded.
The spheroid formation required 4 days before starting the treatment.
The treatment was repeated every 3 days by replacing 50% of the medium (to avoid spheroid removal) with new medium containing 2× desired drug concentration.
Spheroid morphology was monitored every day during the treatment and pictures were taken on day 0, 4, 7, 11, 14, 18. Day 0 corresponds to the first day of treatment. Pictures were taken from the same well every time point.

[2] = biological target: T1, SSTR5 (Homo sapiens, UniProt P35346); assay: SSTR5 internalization in transfected HEK293 cells; assay type: cell-based; set-up: expressed in transfected cells; host or cells: HEK293 co-expressing GIRK2-GFP
Source text: (§1) HEK293 cells transfected with human SSTRs, and U20S cells transfected with human GFP-tagged receptors (SSTR2-tGFP, SSTR3-tGFP, SSTR5-tGFP). SST14 and SST28 were included as reference compounds in the first and second experiments, respectively.

[3] = biological target: T2, SSTR2 (Homo sapiens, UniProt P30874); assay: SSTR2 phosphorylation in HEK293 transfected cells (phosphosite-specific antibodies); assay type: cell-based; set-up: expressed in transfected cells; details: 10 or 1 μM, 10 min at 37° C.
Experimental: (A) Schematic representation of the human SSTR2 receptor indicating all potential phosphate acceptor sites within the carboxyl-terminal tail. Epitopes of the phosphosite-specific antibodies are marked (-P). […] The levels of phosphorylated SSTR2 receptor were then determined using the phosphosite-specific anti-pS341/pS343, pT353/T354, pT356/T359 antibodies. […] Blots shown are representative of three independent experiments. The positions of molecular mass markers are indicated on the left (in kDa).

[4] = system: pentobarbital-induced GH release; assay: pentobarbital-induced GH release in rats; assay type: in vivo, rat
[5] = biological target: T2, SSTR2; assay: SSTR2 internalization in transfected HEK293 cells; assay type: cell-based; set-up: expressed in transfected cells
Source text: (§2) HEK293 cells transfected with human SSTRs, and U20S cells transfected with human GFP-tagged receptors (SSTR2-tGFP, SSTR3-tGFP, SSTR5-tGFP).

[6] = biological target: T3, SSTR3 (Homo sapiens, UniProt P32745); assay: GIRK-based fluorescence membrane potential assay, HEK293-GIRK2-GFP-HA-hSST3
Source text: The concentrations used are indicated. […] Data points represent mean±S.E.M.
(§4) Therefore, G protein-signaling mediated by SSTR agonists was studied using a GIRK-based fluorescence membrane potential assay both in HEK293 cells transfected with hSSTR3, and in AtT20 wild-type as well as hSSTR3-transfected cells.

[7] = biological target: SSTR5-tGFP (Homo sapiens, UniProt P35346); assay: Internalization of SSTR5 in U2OS transfected cells; assay type: cell-based; set-up: expressed in transfected cells; host or cells: U2OS
Source text: as §2

[8] = biological target: SSTR2-tGFP (Homo sapiens, UniProt P30874); assay: Internalization of SSTR2 in U2OS transfected cells; assay type: cell-based; set-up: expressed in transfected cells; host or cells: U2OS
Source text: as §2

[9] = biological target: T3, SSTR3; assay: SSTR3 phosphorylation in HEK293 transfected cells (phosphosite-specific antibodies); assay type: cell-based; set-up: expressed in transfected cells; details: 10^−12 to 10^−5 M, 10 min at 37° C.
Experimental: The levels of phosphorylated SST3 receptor were then determined using the phosphosite-specific anti-pS337/pT341 or anti-pT348.
Finally, the SSTR5 pT333 phosphosite was only partially affected by all tested compounds, with Pasireotide showing the most pronounced effect (FIG. 9B, C).

[10] = biological target: SSTR1 (Homo sapiens, UniProt P30872); assay: SSTR binding affinity (Table 1)
Source text: (§3) IC50 values are from one representative experiment. Confidence interval from 3 independent experiments (Table 1).

[11] = biological target: T1, SSTR5; assay: SSTR binding affinity (Table 1)
Source text: as §3

[12] = biological target: T3, SSTR3; assay: SSTR binding affinity (Table 1)
Source text: as §3

[13] = biological target: T3, SSTR3; assay: SSTR3 internalization in transfected HEK293 cells (confocal microscopy); assay type: cell-based; set-up: expressed in transfected cells; details: HEK293, 1 μM or 10 μM, 30 min
Source text: Cells were then fixed, stained with the anti-HA antibody and examined by confocal microscopy. Shown are representative images from one of at least three independent experiments performed in duplicate.
as §1

[14] = system: NFPAs in MENX (homozygous mutant) rats; assay: Efficacy against endogenous NFPAs in MENX rat model; assay type: in vivo; details: for number of Ki67-positive cells per 100.000 μm^2: end of treatment
Experimental: MRI was performed every 14 days and the tumor volume was normalized against the volume at day 0. Male and female rat tumors are shown separately. Data presented are the mean±SEM. #, not significant; *, p-value <0.05; **, p-value <0.001.
(A, B) Number of Ki67-positive cells per 100.000 μm2 in tumors of rats belonging to the 2 groups (ITF2984-treated and control) and both sexes. Shown is the mean±SEM. *, p-value <0.05; **, p-value <0.001. […]
At the end of the treatment, pituitary tissues were collected for ex vivo analyses. […] The difference in the number of Ki67-positive cells between placebo-and ITF2984-treated female rats is significant (p=0.031). […]

[15] = system: IGF1 levels; assay: IGF1 levels in dogs; assay type: in vivo, dog
[16] = biological target: T2, SSTR2; assay: cell-based; set-up: expressed in transfected cells; host or cells: HEK293 co-expressing GIRK2-GFP
Source text: as §4

[17] = biological target: T1, SSTR5
Source text: as §4

T1 sequence (P35346 whole entry): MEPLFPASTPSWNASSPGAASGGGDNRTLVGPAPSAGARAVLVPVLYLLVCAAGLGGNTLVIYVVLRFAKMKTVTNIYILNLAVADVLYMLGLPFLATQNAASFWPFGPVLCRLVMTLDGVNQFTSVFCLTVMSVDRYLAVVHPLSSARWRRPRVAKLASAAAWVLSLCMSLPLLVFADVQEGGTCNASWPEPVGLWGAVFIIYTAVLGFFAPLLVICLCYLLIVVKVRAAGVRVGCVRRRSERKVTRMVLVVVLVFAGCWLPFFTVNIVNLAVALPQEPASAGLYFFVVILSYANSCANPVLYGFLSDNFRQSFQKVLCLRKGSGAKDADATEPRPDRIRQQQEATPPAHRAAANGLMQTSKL
T2 sequence (P30874 whole entry): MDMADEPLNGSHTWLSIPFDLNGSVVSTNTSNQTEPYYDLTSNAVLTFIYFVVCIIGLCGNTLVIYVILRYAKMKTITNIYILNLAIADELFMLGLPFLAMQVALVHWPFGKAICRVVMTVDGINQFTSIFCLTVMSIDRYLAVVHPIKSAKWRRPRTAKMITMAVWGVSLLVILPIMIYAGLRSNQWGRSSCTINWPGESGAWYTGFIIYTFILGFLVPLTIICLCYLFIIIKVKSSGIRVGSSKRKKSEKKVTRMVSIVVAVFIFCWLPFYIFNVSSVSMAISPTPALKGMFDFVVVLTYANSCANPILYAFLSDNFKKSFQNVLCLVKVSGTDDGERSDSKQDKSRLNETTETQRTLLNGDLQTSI
T3 sequence (P32745 whole entry): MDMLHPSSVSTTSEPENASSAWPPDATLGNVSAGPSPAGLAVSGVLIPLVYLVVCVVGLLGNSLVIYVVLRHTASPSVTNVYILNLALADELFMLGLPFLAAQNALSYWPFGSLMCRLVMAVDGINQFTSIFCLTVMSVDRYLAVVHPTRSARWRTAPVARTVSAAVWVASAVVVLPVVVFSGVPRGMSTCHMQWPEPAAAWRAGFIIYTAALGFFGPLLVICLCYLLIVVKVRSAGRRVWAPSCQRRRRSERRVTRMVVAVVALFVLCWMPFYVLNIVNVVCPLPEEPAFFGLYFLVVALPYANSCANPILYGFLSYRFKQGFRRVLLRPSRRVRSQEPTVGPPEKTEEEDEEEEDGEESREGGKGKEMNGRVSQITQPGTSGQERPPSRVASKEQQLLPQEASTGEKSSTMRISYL
Sequence of SSTR5-tGFP (P35346 whole entry): as the sequence (P35346 whole entry) above
Sequence of SSTR2-tGFP (P30874 whole entry): as the sequence (P30874 whole entry) above
Sequence of SSTR1 (P30872 whole entry): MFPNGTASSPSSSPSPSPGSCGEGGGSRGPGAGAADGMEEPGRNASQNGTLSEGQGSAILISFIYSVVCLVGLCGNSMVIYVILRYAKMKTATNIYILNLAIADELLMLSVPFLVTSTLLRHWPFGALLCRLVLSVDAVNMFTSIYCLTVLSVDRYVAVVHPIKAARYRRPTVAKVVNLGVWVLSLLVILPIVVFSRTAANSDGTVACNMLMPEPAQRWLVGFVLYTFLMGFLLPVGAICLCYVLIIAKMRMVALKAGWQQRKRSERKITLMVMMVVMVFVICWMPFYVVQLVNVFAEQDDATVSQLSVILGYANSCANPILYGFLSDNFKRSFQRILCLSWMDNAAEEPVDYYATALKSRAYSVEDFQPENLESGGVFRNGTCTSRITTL

## COc1cc2cccc(OC)c2cc1C[C@H]1NC(=O)[C@H](Cc2ccc(O)cc2)NC(=O)[C@@H]2C[C@@H](OC(=O)NCCN)CN2C(=O)[C@H](Cc2ccccc2)NC(=O)[C@H](Cc2ccc(OCc3ccccc3)cc2)NC(=O)[C@H](CCCCN)NC1=O [ITF2984, (3S,6R,9S,12S,15S,19R,20aS)-9-(4-aminobutyl)-15-benzyl-12-(4-(benzyloxy)benzyl)-6-((3,8-dimethoxynaphthalen-2-yl)methyl)-3-(4-hydroxybenzyl)-1,4,7,10,13,16-hexaoxoicosahydropyrrolo[1,2-a][1,4,7,10,13,16]hexaazacyclooctadecin-19-yl (2-aminoethyl)carbamate]
[1]; 2.56 μM, 18 days
  spheroid morphology at the highest concentration: completed destroyed
[1]; starting from day 7
  concentration reducing the spheroid volume: ≥ 640 nM
[2]
  internalization of SSTR5: only a partial internalization
[3]
  phosphorylation of SSTR2 (pS341/pS343, pT353/T354, pT356/T359): selective phosphorylation of S341/S343
[4]
  pentobarbital-induced GH release: inhibited pentobarbital-induced GH release
[5]
  internalization of SSTR2: only a partial internalization
[6]
  EC50: 10.7 ± 1.7 nM
[6]; more potent than Octreotide or Pasireotide
  G-protein signaling potency at SSTR3 versus Octreotide or Pasireotide: about 5 times
[7]; 1 μM
  Mean of internalized fluorescence, SSTR5: 34.6 AU
[7]; 10 μM
  Mean of internalized fluorescence, SSTR5: 42.0 AU
[8]; 1 μM
  Mean of internalized fluorescence, SSTR2: 37.3 AU
[8]; 10 μM
  Mean of internalized fluorescence, SSTR2: 35.9 AU
[9]
  phosphorylation of SSTR3 (pS337/pT341, pT348): full phosphorylation
[10]
  affinity compared to octreotide: higher affinity
[11]
  IC50: nanomolar range
[11]; compared to octreotide
  affinity compared to octreotide: higher affinity
[12]
  IC50: nanomolar range
[12]; compared to octreotide
  affinity compared to octreotide: higher affinity
[13]
  internalization of SSTR3: strong internalization
[14]; end of the treatment
  signs of discomfort: no signs of discomfort
[14]; female rats, 56 days, 12.5 mg/kg every 14 days
  tumor volume (MRI): only a slight increase in tumor volume
[14]; female rats
  number of Ki67-positive cells per 100.000 μm^2: 134
[14]; male rats
  change in Ki67-positive cells versus placebo: −33.5%
  number of Ki67-positive cells per 100.000 μm^2: 250
[15]
  IGF1 levels: decreased IGF1 levels
[16]
  EC50: 312 ± 29.3 nM
[17]
  EC50: 95.1 ± 15.2 nM
